Test results taken from PMC4551797 (PLoS ONE, 2015).

What was measured:
human TGR5 receptor = molecular target: T1, human TGR5 receptor (Homo sapiens, UniProt Q8TDU6); assay: cAMP production in NCI-H716 enteroendocrine cells (endogenous TGR5); format: cell-based
T1 construct: in cells with endogenous levels of receptor; host or cells: NCI-H716 (human enteroendocrine)
T1 sequence (Q8TDU6 1-330): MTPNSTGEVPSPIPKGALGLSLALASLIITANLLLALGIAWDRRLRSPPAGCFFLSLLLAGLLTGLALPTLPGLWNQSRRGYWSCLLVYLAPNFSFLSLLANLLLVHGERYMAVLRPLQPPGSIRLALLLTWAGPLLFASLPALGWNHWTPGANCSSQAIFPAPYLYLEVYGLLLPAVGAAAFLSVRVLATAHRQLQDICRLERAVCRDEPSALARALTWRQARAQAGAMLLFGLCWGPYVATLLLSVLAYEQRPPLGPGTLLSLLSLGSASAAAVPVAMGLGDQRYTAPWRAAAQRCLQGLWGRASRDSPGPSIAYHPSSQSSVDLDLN
Method: HEK-293 cells were obtained from ATCC and a clonal HEK-293 line overexpressing mouse TGR5 was prepared. Both were maintained in Dulbecco’s modified Eagle’s medium (DMEM) containing 10% fetal bovine serum (FBS) and penicillin /streptomycin. Mouse STC-1 cells were obtained from ATCC under agreement with the Cold Spring Harbor Laboratories and maintained in DMEM containing 10% FBS and penicillin /streptomycin. NCI-H716 cells were obtained from ATCC and were maintained in RPMI-1640 with 10% FBS. NCI-H716 cells were cultured in 96 well plate coated with Matrigel (BD). After 72 hours, cAMP production stimulated with TGR5 agonists was measured using HTRF cAMP assay kit (CISBIO). The level of cAMP in suspensions of STC-1 cells stimulated with increasing concentrations of TGR5 agonists was also determined. […] The production of GLP-1 was determined using a GLP-1 Assay (7–36) amide kit (Mesoscale Discovery) following the manufacturer’s instructions. […]
Compound 18 is a novel small molecule agonist of TGR5 developed by Eli Lilly and Company (MW = 508.62, Fig 2A). […] In order to determine potency of compound 18 for the mouse and human TGR5 receptor in cells with endogenous levels of receptor, we measured compound 18-stimulated cAMP production and GLP-1 secretion in both mouse (STC-1) and human (NCI-H716) enteroendocrine cell lines, that we have shown to express TGR5 natively (Fig 1). […]

DIO C57BL/6 mice = assay: Body weight, food intake and body composition in DIO mice over two weeks; format: in vivo, mouse; conditions: 60 mg/kg oral once a day
Method: Body composition of mice was determined using Quantitative Nuclear Magnetic Resonance analysis (ECHO MRI, 3–1 Composition Analyzer; Echo Medical Systems, Houston, TX). DIO mice were randomized by body weight and fat mass prior to administration of compounds. Changes in body weight, cumulative food intake, and fat and lean mass were recorded for up to a two week period.
While compound 18 led to significant glucose lowering in an OGTT studies when dosed acutely, it remained unclear if the mechanism of TGR5-stimulated GLP-1 secretion desensitizes over time. […] In order to determine if desensitization occurs, as well as explore the potential for changes in body weight by compound 18, we obtained DIO C57BL/6 mice and randomly assigned them into either an acute or chronic study. For the acute experiment, overnight-fasted DIO mice were dosed with vehicle or 60 mg/kg of compound 18 the next morning, and an OGTT was performed 30 minutes after compound dosing using 2 g/kg glucose. For the chronic study, DIO mice were orally dosed with vehicle or 60 mg/kg compound 18 once a day for two weeks; body weights and food intake were measured during the treatment period. After two weeks, mice were over-night fasted, dosed the following morning, and subjected to an OGTT 30 minutes after compound dosing.
Diet-induced obese (DIO) C57BL/6 mice were either dosed acutely or chronically for two weeks with vehicle (white circles, white bars) or compound 18 at 60 mg/kg (black triangles, black bars). An OGTT on over-night fasted DIO mice was performed after either a single dose (A, acute) or after two weeks of dosing (B, chronic), using 2 g/kg glucose dosed 30 minutes after compound dosing. Changes in body weights (C) and cumulative food intake (D) were recorded for the two week period. n = 8; mean +/- SEM. * P < 0.01.

C57BL/6 mice [1] = assay: Three-day study on GLP-1 and gallbladder filling (bile weight); format: in vivo, mouse
Method: C57BL/6 mice, Tgr5 KO mice, or their wild-type littermate controls were orally dosed with vehicle or compounds twice per day for 3 days, with overnight fasting performed on the evening of day 2. On the morning of day 3, animals were dosed orally with compounds and then euthanized by CO2 asphyxiation at 30 minutes after the fifth dose. Plasma was collected for analysis of GLP-1 (X-36) amide as mentioned above, followed immediately by incision into the abdominal cavity to remove and weigh bile from the gallbladder.
On the third day, compound was dosed in the morning followed 30 minutes later by measurement of bile filling (A) by use of a needle and syringe and GLP-1 (x-36) amide (B) by cardiac puncture.

C57BL/6 mice [2] = assay: Acute in vivo incretin secretion assay (plasma GLP-1 and PYY AUC); conditions: fasted mice, 3-hour time course
Excerpt: Plasma was separated by centrifugation, aliquoted, and analyzed for GLP-1 (X-36) amide (Mesoscale Discovery) and total PYY (Millipore). Resulting raw data was used to generate area under the curve analyses (AUCs).

[3] = 1, 3, 10, 30, 100 mg/kg oral BID 3 days, 30 min after last dose

## CC(=O)N1CCC(C(C)N(C(=O)COc2cccc3sc4nc(C)cn4c23)c2ccc(F)cc2)CC1 (centres unmarked) [compound 18]
Human TGR5 receptor
  EC50: 3.1 µM
DIO C57BL/6 mice
  food intake: no change in food intake
  reduction in body weight gain versus vehicle: 1.4 g
DIO C57BL/6 mice; P = 0.995
  lean mass: no difference in lean mass
DIO C57BL/6 mice; p = 0.067
  gain in fat mass: trend towards reduced gain in fat mass
C57BL/6 mice [1]; [3]
  bile weight (gallbladder filling): clear dose dependent increase in bile weight
  plasma GLP-1 levels: elevated GLP-1 levels
C57BL/6 mice [1]; oral BID 3 days
  doses with significant effects on GLP-1 secretion: ≥ 30 mg/kg
  doses with significant effects on bile weight: ≥ 3 mg/kg
C57BL/6 mice [2]; 3 mg/kg oral
  GLP-1 AUC increase over vehicle: 1.2 fold over vehicle
  PYY AUC increase over vehicle: 1.1 fold over vehicle
C57BL/6 mice [2]; 10 mg/kg oral
  GLP-1 AUC increase over vehicle: 2.0 fold over vehicle
  PYY AUC increase over vehicle: 1.5 fold over vehicle
C57BL/6 mice [2]; 30 mg/kg oral
  GLP-1 AUC increase over vehicle: 5.7 fold over vehicle
  PYY AUC increase over vehicle: 3.1 fold over vehicle
C57BL/6 mice [2]; 100 mg/kg oral
  GLP-1 AUC increase over vehicle: 12.1 fold over vehicle
  PYY AUC increase over vehicle: 4.9 fold over vehicle
